# Laboratory results published in patent US11529350B2, “Tyrosine kinase non-receptor 1 (TNK1) inhibitors and uses thereof” (Sumitomo Pharma Oncology, Inc., priority 2019, dated 2022).
# Key:
# A549 cells = experiment: Combination with bortezomib, A549 cell confluency (Incucyte); type: cell-based; details: Example No. 13 10 nM + Bortezomib 1 nM, over 200 hours
# Procedure: A549 cells were seeded in log phase (e.g., at 40-60% confluency) in a well plate. Drug treatments were: no drug treatment, DMSO, bortezomib at 50 nM, 10 nM, 5 nM, 2 nM or 1 nM, Example No. 13 at 10 nM, and bortezomib 50 nM, 10 nM, 5 nM, 2 nM or 1 nM combined with Example No. 13 at 10 nM. The DMSO concentrations were kept constant (including DMSO control) to control for any confounding DMSO toxicity.
# Drug addition protocol: On day 1, cells were seeded at 60,000 cells/well, and incubated for 24 hours to allow adherence. On day 2, media was aspirated and replaced with 500 μl of the drug media preparations described below in correlating wells. The plates were placed in Incucyte for 7-14 days, and cell confluency was measured every 2 hours. […]
# L540 xenografts = experiment: In vivo efficacy study in subcutaneous L540 Hodgkin's lymphoma CDX model; details: for tumor growth inhibition: oral gavage daily for 21 days
# Procedure: An efficacy study was performed using Example No. 13 in a L540 CDX mouse model. Animals were NOD-SCID (#394) female mice 6-8 weeks of age from Charles River Laboratories (CRL). Example No. 13 was formulated weekly using Tween 80:Ethanol:PEG400:Water (2:10:30:58 v/v) as a vehicle. There were four treatment groups (n=10, 40 animals in total): a vehicle/control group, a group treated with 10 mg/kg Example No. 13, a group treated with 25 mg/kg Example No. 13 and a group treated with 50 mg/kg Example No. 13. When the average tumor volume reached 80-120 mm^3, animals were randomized and dosed daily for 21 days via oral gavage, 10 ml/kg dose volume. […] No tissues were collected. IDEXX pathogen test was performed prior to the cell culture; Corynebacterium bovis, Corynebacterium sp. (HAC2), EBV, HCMV, Hepatitis B, Hepatitis C, HIV1, HIV2, HPV16, HPV18, HTLV1, HTLV2, LDEV, and Mycoplasma sp. were tested, and all results were negative. Tumor volume measurements are provided as mean absolute tumor volume +/−SEM.
compound,measurement,setting,value
"COc1cc(N2CCN(C)CC2)c(Cl)cc1Nc1ncc(Cl)c(Nc2cccnc2N2CCCC2=O)n1 [Example No. 13, 1-(3-((5-chloro-2-((5-chloro-2-methoxy-4-(4-methylpiperazin-1-yl)phenyl)amino)pyrimidin-4-yl)amino)pyridin-2-yl)pyrrolidin-2-one]","cell growth inhibition, combination",A549 cells,approximately 50%
same,tumor growth inhibition,"L540 xenografts; 10 mg/kg, at Day 21",35.17%
same,tumor growth inhibition,"L540 xenografts; 25 mg/kg, at Day 31",74.20%
same,body weight loss,L540 xenografts; 50 mg/kg,moderate
same,"animals found dead on Day 7, possibly due to drug toxicity",L540 xenografts; 50 mg/kg group (n=10),Two
same,tumor growth inhibition,"L540 xenografts; 50 mg/kg, at Day 31",86.5%
same,continued tumor growth inhibition post-dosing,"L540 xenografts; 25 and 50 mg/kg, dosing stopped on day 21",up to 10 days
